Key:
[1] = test system: Haematobia irritans (horn fly); assay: Efficacy of long-acting injectable composition against Haematobia irritans (horn fly) on cattle; format: in vivo; settings: naturally infested cattle, 10% (w/v) composition at 0.25 mL/50 kg body weight
Experimental: The efficacy of a long-acting injectable composition comprising the compound of formula (S)-Ie against horn fly on cattle was evaluated. Two groups of 15 cattle were selected for the study and randomly assigned to one of two groups. The cattle in Group 1 were untreated and the cattle in Group 2 were treated with a long-acting composition of the invention containing 10% (w/v) of the compound of formula (S)-Ie in a carrier comprising 8% (w/v) ethanol in PEG 400 (QS). The composition was administered to the cattle in Group 2 at a dose of 0.25 mL/50 kg body weight. Each animal was naturally infested with horn flies, and horn fly counts were performed on Days-2, 3, 7, 10, 13, 16, 20, 23, 27, 30, 34, 37, 43, 45 and 48. Tables 2A and 2B below provide the horn fly counts and the % reduction of the treated group relative to the control.

[2] = test system: Rhipicephalus microplus ticks; assay: Efficacy of injectable formulation against Rhipicephalus (Boophilus) microplus ticks on cattle; format: in vivo; settings: for Average % Efficacy (Tick Count): vs untreated control
Experimental: The efficacy of long-acting injectable compositions of the invention comprising the compounds of formula (Ie) and (S)-Ie, against Rhipicephalus microplus ticks on cattle was determined against an untreated control group. The efficacy of compositions comprising the compounds (Ie) and (S)-e were also compared with injectable compositions comprising afoxolaner (formula Ia, 4-[5-[3-chloro-5-(trifluoromethyl)phenyl]-4,5-dihydro-5-(trifluoromethyl)-3-isoxazolyl]-N-[2-oxo-2-[(2,2,2-trifluoroethyl)amino]ethyl]-1-naphthalanecarboxamide), and comparative compounds of formulae (If) and (S)-If shown below.
Each compound was formulated in an injectable composition at a concentration of 10% (w/v) in a carrier comprising 8% (w/v) ethanol and Q.S. with polyethylene glycol 400. The racemic compounds afoxolaner and (If) were dosed at 1.0 mg/kg body weight and the (S)-enantiomers ((S)-Ie and (S)-If) were dosed at 0.5 mg/kg body weight. Six healthy head of cattle were used in each study group. Cattle in Group 1 were untreated (control). Cattle in Groups 2, 3, 4, 5 and 6 were treated on Day 0 subcutaneously with injectable compositions comprising the compounds of formula Ie, (S)-If, (S)-Ie, afoxolaner (Ia) and (If), respectively. Several weeks before treatment, cattle were infested three times a week with approximately 2500 Rhipicephalus microplus larvae to establish ongoing infestations. Each animal was challenged by infestation with approximately 5000 R. microplus larvae on Days 7 and 21 and every 14 days thereafter. Ticks dropping from each animal in the previous 24 hours were collected daily and counted from Day 1 until the end of the study.

[3] = injectable composition, compared with afoxolaner, (If) or (S)-If

O=C(CNC(=O)c1ccc(C2=NO[C@@](c3cc(Cl)c(F)c(C(F)(F)F)c3)(C(F)(F)F)C2)c2ccccc12)NCC(F)(F)F [(S)-Ie]
% Reduction of horn fly counts of the treated group relative to the control ([1]; Day 3): 89.5%
Arithmetic Mean of Horn Fly Counts ([1]; Day 3): 26.7
% Reduction of horn fly counts of the treated group relative to the control ([1]; Day 7): 74.3%
Arithmetic Mean of Horn Fly Counts ([1]; Day 7): 35.0
% Reduction of horn fly counts of the treated group relative to the control ([1]; Day 10): 79.6%
Arithmetic Mean of Horn Fly Counts ([1]; Day 10): 16.0
% Reduction of horn fly counts of the treated group relative to the control ([1]; Day 13): 63.3%
Arithmetic Mean of Horn Fly Counts ([1]; Day 13): 22.0
% Reduction of horn fly counts of the treated group relative to the control ([1]; Day 16): 57.3%
Arithmetic Mean of Horn Fly Counts ([1]; Day 16): 44.7
% Reduction of horn fly counts of the treated group relative to the control ([1]; Day 20): 56.6%
Arithmetic Mean of Horn Fly Counts ([1]; Day 20): 36.0
% Reduction of horn fly counts of the treated group relative to the control ([1]; Day 23): 42.5%
Arithmetic Mean of Horn Fly Counts ([1]; Day 23): 30.7
% Reduction of horn fly counts of the treated group relative to the control ([1]; Day 27): 61.8%
Arithmetic Mean of Horn Fly Counts ([1]; Day 27): 22.7
% Reduction of horn fly counts of the treated group relative to the control ([1]; Day 30): 67.6%
Arithmetic Mean of Horn Fly Counts ([1]; Day 30): 23.0
% Reduction of horn fly counts of the treated group relative to the control ([1]; Day 34): 44.8%
Arithmetic Mean of Horn Fly Counts ([1]; Day 34): 26.3
% Reduction of horn fly counts of the treated group relative to the control ([1]; Day 37): 61.8%
Arithmetic Mean of Horn Fly Counts ([1]; Day 37): 28.0
% Reduction of horn fly counts of the treated group relative to the control ([1]; Day 43): 39.5%
Arithmetic Mean of Horn Fly Counts ([1]; Day 43): 26.0
% Reduction of horn fly counts of the treated group relative to the control ([1]; Day 45): 35.5%
Arithmetic Mean of Horn Fly Counts ([1]; Day 45): 43.0
% Reduction of horn fly counts of the treated group relative to the control ([1]; Day 48): 31.1%
Arithmetic Mean of Horn Fly Counts ([1]; Day 48): 30.3
Average % Efficacy (Tick Count) ([2]; Day 5, 0.5 mg/kg subcutaneous on Day 0 ((S)-enantiomers)): 66%
Average % Efficacy (Tick Count) ([2]; Day 10, 0.5 mg/kg subcutaneous on Day 0 ((S)-enantiomers)): 93%
Average % Efficacy (Tick Count) ([2]; Day 20, 0.5 mg/kg subcutaneous on Day 0 ((S)-enantiomers)): 100%
Average % Efficacy (Tick Count) ([2]; Day 30, 0.5 mg/kg subcutaneous on Day 0 ((S)-enantiomers)): 100%
Average % Efficacy (Tick Count) ([2]; Day 40, 0.5 mg/kg subcutaneous on Day 0 ((S)-enantiomers)): 100%
Average % Efficacy (Tick Count) ([2]; Day 49, 0.5 mg/kg subcutaneous on Day 0 ((S)-enantiomers)): 100%
Average % Efficacy (Tick Count) ([2]; Day 55, 0.5 mg/kg subcutaneous on Day 0 ((S)-enantiomers)): 100%
Average % Efficacy (Tick Count) ([2]; Day 60, 0.5 mg/kg subcutaneous on Day 0 ((S)-enantiomers)): 100%
Average % Efficacy (Tick Count) ([2]; Day 65, 0.5 mg/kg subcutaneous on Day 0 ((S)-enantiomers)): 100%
Average % Efficacy (Tick Count) ([2]; Day 70, 0.5 mg/kg subcutaneous on Day 0 ((S)-enantiomers)): 100%
Average % Efficacy (Tick Count) ([2]; Day 75, 0.5 mg/kg subcutaneous on Day 0 ((S)-enantiomers)): 100%
Average % Efficacy (Tick Count) ([2]; Day 80, 0.5 mg/kg subcutaneous on Day 0 ((S)-enantiomers)): 100%
Average % Efficacy (Tick Count) ([2]; Day 85, 0.5 mg/kg subcutaneous on Day 0 ((S)-enantiomers)): 90%
Average % Efficacy (Tick Count) ([2]; Day 88, 0.5 mg/kg subcutaneous on Day 0 ((S)-enantiomers)): 88%
Average % Efficacy (Tick Count) ([2]; Day 95, 0.5 mg/kg subcutaneous on Day 0 ((S)-enantiomers)): 92%
Average % Efficacy (Tick Count) ([2]; Day 100, 0.5 mg/kg subcutaneous on Day 0 ((S)-enantiomers)): 88%
Average % Efficacy (Tick Count) ([2]; Day 105, 0.5 mg/kg subcutaneous on Day 0 ((S)-enantiomers)): 76%
Average % Efficacy (Tick Count) ([2]; Day 110, 0.5 mg/kg subcutaneous on Day 0 ((S)-enantiomers)): 65%
efficacy and duration of activity against Rhipicephalus microplus compared with other isoxazoline compounds [2, 3]: surprising and unexpected efficacy
speed of onset of efficacy against Rhipicephalus microplus compared with other isoxazoline compounds [2, 3]: faster-acting

Reference: patent publication US12083100B1, “Antiparasitic isoxazoline compounds, long-acting injectable formulations comprising them, methods and uses thereof” (BOEHRINGER INGELHEIM ANIMAL HEALTH USA INC., priority 2016, dated 2024)
